What was measured:
[1] = tested on: HBV in 2.2.15 cells; experiment: 2.2.15 cells: viral product in cell lysates quantified via quantitative real time PCR; format: cell-based, hepatitis B virus (HBV); settings: Hepatitis B virus, 120 h, day 5 post treatment, 50% reduction of viral product vs no drug controls, readout (qPCR, HBsAg or HBeAg) not specified for the column
Procedure, shortened: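 HBV product was measured at day 5 by lysate qPCR or by supernatant HBsAg/HBeAg ELISA, in 2.2.15 cells seeded at 35,000/well and exposed to 5-fold compound dilution series (0.5% DMSO). EC50 is 50% reduction of viral product relative to untreated controls.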

[2] = Compound induced cellular toxicity in HepG2 cells, ATPlite 1Step; format: cell-based; settings: human, three days exposure, 50% reduction of total ATP vs no drug controls
Experimental: At day 3, post seeding cells are treated with ATPlite 1Step according to the manufacturer's instructions.

SMILES | EC50 [1] | CC50 at 3 days [2]
CC(C)(C)[C@@H]1Cn2nc(C3CC3)c(-c3cnsc3)c2-c2cc(=O)c(C(=O)O)cn21 [Example 162, (R)-6-(tert-butyl)-2-cyclopropyl-1-(isothiazol-4-yl)-10-oxo-5,6-dihydro-10H-pyrazolo[1,5-a]pyrido[2,1-c]pyrazine-9-carboxylic acid] | < 0.1 µM | > 25 µM
CC(C)(C)[C@@H]1Cn2nc(-c3cccc4c3OCC4)cc2-c2cc(=O)c(C(=O)O)cn21 [Example 59, (R)-6-(tert-butyl)-2-(2,3-dihydrobenzofuran-7-yl)-10-oxo-5,6-dihydro-10H-pyrazolo[1,5-a]pyrido[2,2-c]pyrazine-12-carboxylic acid] | < 0.1 µM | > 25 µM
CC(C)[C@@H]1Cn2nc(C3CC3)c(-c3cccnc3)c2-c2cc(=O)c(C(=O)O)cn21 [Example 140, (R)-2-cyclopropyl-6-isopropyl-10-oxo-1-(pyridin-3-yl)-5,6-dihydro-10H-pyrazolo[1,5-a]pyrido[2,1-c]pyrazine-9-carboxylic acid] | < 0.1 µM | > 25 µM
CC(C)Oc1ccccc1-c1cc2n(n1)C[C@@H](C(C)(C)C)n1cc(C(=O)O)c(=O)cc1-2 [Example 82, (R)-6-(tert-butyl)-2-(2-isopropoxyphenyl)-10-oxo-5,6-dihydro-10H-pyrazolo[1,5-a]pyrido[2,2-c]pyrazine-12-carboxylic acid] | < 0.1 µM | > 25 µM
CC(C)(C)[C@@H]1Cn2nc(-c3cccc(F)c3F)cc2-c2cc(=O)c(C(=O)O)cn21 [Example 30, (R)-6-(tert-butyl)-2-(2,3-difluorophenyl)-10-oxo-5,6-dihydro-10H-pyrazolo[1,5-a]pyrido[2,2-c]pyrazine-12-carboxylic acid] | < 0.1 µM | > 25 µM
CC(C)[C@@H]1Cn2nc(-c3ccc(O)cc3)c(-c3ccc(O)cc3)c2-c2c(F)c(=O)c(C(=O)O)cn21 [Example 191, (R)-11-fluoro-1,2-bis(4-hydroxyphenyl)-6-isopropyl-10-oxo-5,6-dihydro-10H-pyrazolo[1,5-a]pyrido[2,1-c]pyrazine-9-carboxylic acid] | < 0.1 µM | > 25 µM
Cc1ccc(-c2cnn3c2-c2cc(=O)c(C(=O)O)cn2[C@H](C(C)(C)C)C3)cc1 [Example 126, (R)-6-(tert-butyl)-10-oxo-1-(p-tolyl)-5,6-dihydro-10H-pyrazolo[1,5-a]pyrido[2,1-c]pyrazine-9-carboxylic acid] | < 0.1 µM | > 25 µM
COc1ccc(-c2cc3n(n2)C[C@@H](C(C)(C)C)n2cc(C(=O)O)c(=O)cc2-3)cc1 [Example 10, (R)-6-(tert-butyl)-2-(4-methoxyphenyl)-10-oxo-5,6-dihydro-10H-pyrazolo[1,5-a]pyrido[2,2-c]pyrazine-12-carboxylic acid] | < 0.1 µM | > 25 µM
CC(C)[C@@H]1Cn2nc(-c3ccc(O)cc3)c(-c3ccc(O)cc3)c2-c2cc(=O)c(C(=O)O)cn21 [Example 172, (R)-1,2-bis(4-hydroxyphenyl)-6-isopropyl-10-oxo-5,6-dihydro-10H-pyrazolo[1,5-a]pyrido[2,1-c]pyrazine-9-carboxylic acid] | < 0.1 µM | > 25 µM
CC(C)(C)[C@@H]1Cn2nc(-c3ccccc3C#N)cc2-c2cc(=O)c(C(=O)O)cn21 [Example 40, (R)-6-(tert-butyl)-2-(2-cyanophenyl)-10-oxo-5,6-dihydro-10H-pyrazolo[1,5-a]pyrido[2,2-c]pyrazine-12-carboxylic acid] | < 0.1 µM | > 25 µM
Cc1cccc(-c2cnn3c2-c2cc(=O)c(C(=O)O)cn2[C@H](C(C)(C)C)C3)c1 [Example 125, (R)-6-(tert-butyl)-10-oxo-1-(m-tolyl)-5,6-dihydro-10H-pyrazolo[1,5-a]pyrido[2,1-c]pyrazine-9-carboxylic acid] | < 0.1 µM | > 25 µM
CC(C)(C)[C@@H]1Cn2nc(-c3ccc(F)cc3)cc2-c2cc(=O)c(C(=O)O)cn21 [Example 1, (R)-6-(tert-butyl)-2-(4-fluorophenyl)-10-oxo-5,6-dihydro-10H-pyrazolo[1,5-a]pyrido[2,2-c]pyrazine-12-carboxylic acid] | < 0.1 µM | > 25 µM
CNc1ncc(-c2cc3n(n2)C[C@@H](C(C)(C)C)n2cc(C(=O)O)c(=O)cc2-3)cn1 [Example 14, (R)-6-(tert-butyl)-2-(2-(methylamino)pyrimidin-5-yl)-10-oxo-5,6-dihydro-10H-pyrazolo[1,5-a]pyrido[2,2-c]pyrazine-12-carboxylic acid] | 0.2 to 1 µM | > 25 µM
CC(C)(C)[C@@H]1Cn2nc(C3CC3)c(-c3cccc4scnc34)c2-c2cc(=O)c(C(=O)O)cn21 [Example 164, (R)-1-(benzo[d]thiazol-4-yl)-6-(tert-butyl)-2-cyclopropyl-10-oxo-5,6-dihydro-10H-pyrazolo[1,5-a]pyrido[2,1-c]pyrazine-9-carboxylic acid] | < 0.1 µM | > 25 µM
C[C@@H]1Cn2nc(-c3cccc(F)c3)c(-c3cccc(F)c3)c2-c2cc(=O)c(C(=O)O)cn21 [Example 205, (R)-1,2-bis(3-fluorophenyl)-6-methyl-10-oxo-5,6-dihydro-10H-pyrazolo[1,5-a]pyrido[2,1-c]pyrazine-9-carboxylic acid] | < 0.1 µM | 10 to 25 µM
CCCOc1ccccc1-c1cc2n(n1)C[C@@H](C(C)(C)C)n1cc(C(=O)O)c(=O)cc1-2 [Example 77, (R)-6-(tert-butyl)-10-oxo-2-(2-propoxyphenyl)-5,6-dihydro-10H-pyrazolo[1,5-a]pyrido[2,2-c]pyrazine-12-carboxylic acid] | < 0.1 µM | > 25 µM
COc1cccc(C(N)=O)c1-c1cc2n(n1)C[C@@H](C(C)(C)C)n1cc(C(=O)O)c(=O)cc1-2 [Example 52, (R)-6-(tert-butyl)-2-(2-carbamoyl-6-methoxyphenyl)-10-oxo-5,6-dihydro-10H-pyrazolo[1,5-a]pyrido[2,2-c]pyrazine-12-carboxylic acid] | 0.2 to 1 µM | > 25 µM
CC(C)[C@@H]1Cn2nc(C3CC3)c(-c3ccc(O)cc3)c2-c2cc(=O)c(C(=O)O)cn21 [Example 143, (R)-2-cyclopropyl-1-(4-hydroxyphenyl)-6-isopropyl-10-oxo-5,6-dihydro-10H-pyrazolo[1,5-a]pyrido[2,1-c]pyrazine-9-carboxylic acid] | < 0.1 µM | > 25 µM
CC(C)(C)[C@@H]1Cn2nc(-c3ccc(F)c(F)c3)cc2-c2cc(=O)c(C(=O)O)cn21 [Example 60, (R)-6-(tert-butyl)-2-(3,4-difluorophenyl)-10-oxo-5,6-dihydro-10H-pyrazolo[1,5-a]pyrido[2,2-c]pyrazine-12-carboxylic acid] | < 0.1 µM | > 25 µM
CC(C)(C)[C@@H]1Cn2ncc(-c3cccs3)c2-c2cc(=O)c(C(=O)O)cn21 [Example 109, (R)-6-(tert-butyl)-10-oxo-1-(thiophen-2-yl)-5,6-dihydro-10H-pyrazolo[1,5-a]pyrido[2,1-c]pyrazine-9-carboxylic acid] | < 0.1 µM | > 25 µM
Cc1sccc1-c1c(C2CC2)nn2c1-c1cc(=O)c(C(=O)O)cn1[C@H](C(C)(C)C)C2 [Example 160, (R)-6-(tert-butyl)-2-cyclopropyl-1-(2-methylthiophen-3-yl)-10-oxo-5,6-dihydro-10H-pyrazolo[1,5-a]pyrido[2,1-c]pyrazine-9-carboxylic acid] | < 0.1 µM | > 25 µM
CC(C)(C)[C@@H]1Cn2nc(-c3ccc(F)cc3)c(-c3ccc(F)cc3)c2-c2cc(=O)c(-c3ncn[nH]3)cn21 [Example 194, (R)-6-(tert-butyl)-1,2-bis(4-fluorophenyl)-9-(1H-1,2,4-triazol-5-yl)-5,6-dihydro-10H-pyrazolo[1,5-a]pyrido[2,1-c]pyrazin-10-one] | < 0.1 µM | 10 to 25 µM
CC(C)(C)[C@@H]1Cn2nc(C3CC3)c(-c3ccccc3O)c2-c2cc(=O)c(C(=O)O)cn21 [Example 165, (R)-6-(tert-butyl)-2-cyclopropyl-1-(2-hydroxyphenyl)-10-oxo-5,6-dihydro-10H-pyrazolo[1,5-a]pyrido[2,1-c]pyrazine-9-carboxylic acid] | < 0.1 µM | > 25 µM
CC(C)(C)[C@@H]1Cn2nc(-c3ccc(F)cc3)c(-c3ccccc3)c2-c2cc(=O)c(C(=O)O)cn21 [Example 166, (R)-6-(tert-butyl)-2-(4-fluorophenyl)-10-oxo-1-phenyl-5,6-dihydro-10H-pyrazolo[1,5-a]pyrido[2,1-c]pyrazine-9-carboxylic acid] | < 0.1 µM | > 25 µM
COc1cccc(-c2cc3n(n2)C[C@@H](C(C)(C)C)n2cc(C(=O)O)c(=O)cc2-3)c1C#N [Example 45, (R)-6-(tert-butyl)-2-(2-cyano-3-methoxyphenyl)-10-oxo-5,6-dihydro-10H-pyrazolo[1,5-a]pyrido[2,2-c]pyrazine-12-carboxylic acid] | < 0.1 µM | > 25 µM
CC(C)(C)[C@@H]1Cn2ncc(-c3ccc(F)cc3)c2-c2cc(=O)c(C(=O)O)cn21 [Example 101, (R)-6-(tert-butyl)-1-(4-fluorophenyl)-10-oxo-5,6-dihydro-10H-pyrazolo[1,5-a]pyrido[2,1-c]pyrazine-9-carboxylic acid] | < 0.1 µM | > 25 µM
CC(C)(C)[C@@H]1Cn2nc(-c3cccc(F)c3)c(-c3cccc(F)c3)c2-c2cc(=O)c(-c3ncn[nH]3)cn21 [Example 193, (R)-6-(tert-butyl)-1,2-bis(3-fluorophenyl)-9-(1H-1,2,4-triazol-5-yl)-5,6-dihydro-10H-pyrazolo[1,5-a]pyrido[2,1-c]pyrazin-10-one] | < 0.1 µM | > 25 µM
